Key:
PIK3CB (Human) = PIK3CB (Human) (UniProt P42338); assay: Assessment of PIK3CB Kinase Activity
PIK3CA (human) = PIK3CA (human) (UniProt P42336); assay: Assessment of PIK3CA Kinase Activity
PIK3CD (Human) = PIK3CD (Human) (UniProt O00329); assay: Assessment of PIK3CD Kinase Activity
PIK3CG (human) = PIK3CG (human) (UniProt P48736); assay: Assessment of PIK3CG Kinase Activity
PIK3CG (human), sequence (P48736 whole entry, looked up): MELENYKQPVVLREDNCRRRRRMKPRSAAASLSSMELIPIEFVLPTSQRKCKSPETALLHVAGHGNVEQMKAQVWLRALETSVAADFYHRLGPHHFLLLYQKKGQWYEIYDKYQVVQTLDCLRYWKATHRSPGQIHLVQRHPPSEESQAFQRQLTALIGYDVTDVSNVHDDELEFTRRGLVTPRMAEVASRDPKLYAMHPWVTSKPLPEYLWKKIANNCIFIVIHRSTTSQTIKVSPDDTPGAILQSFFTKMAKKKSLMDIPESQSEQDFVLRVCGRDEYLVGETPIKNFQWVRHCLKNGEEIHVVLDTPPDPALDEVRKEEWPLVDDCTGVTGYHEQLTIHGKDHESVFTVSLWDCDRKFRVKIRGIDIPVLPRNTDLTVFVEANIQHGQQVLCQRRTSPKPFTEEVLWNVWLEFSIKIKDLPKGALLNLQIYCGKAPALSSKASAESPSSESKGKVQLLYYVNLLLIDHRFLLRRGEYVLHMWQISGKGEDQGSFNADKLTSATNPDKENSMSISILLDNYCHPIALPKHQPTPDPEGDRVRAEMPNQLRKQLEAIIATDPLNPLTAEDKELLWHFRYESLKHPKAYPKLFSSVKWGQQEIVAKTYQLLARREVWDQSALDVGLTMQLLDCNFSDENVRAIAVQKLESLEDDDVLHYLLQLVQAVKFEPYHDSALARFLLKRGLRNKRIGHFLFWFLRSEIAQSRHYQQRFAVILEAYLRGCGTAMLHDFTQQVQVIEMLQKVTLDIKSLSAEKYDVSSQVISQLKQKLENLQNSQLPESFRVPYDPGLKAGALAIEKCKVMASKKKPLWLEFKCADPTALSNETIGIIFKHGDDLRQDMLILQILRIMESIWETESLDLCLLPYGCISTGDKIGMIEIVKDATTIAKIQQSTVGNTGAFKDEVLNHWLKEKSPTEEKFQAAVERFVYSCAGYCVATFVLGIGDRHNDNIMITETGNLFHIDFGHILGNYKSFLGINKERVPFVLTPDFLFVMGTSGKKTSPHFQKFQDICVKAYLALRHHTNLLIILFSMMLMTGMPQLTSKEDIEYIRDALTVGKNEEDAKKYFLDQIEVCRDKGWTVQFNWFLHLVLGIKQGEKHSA

PIK3CD (Human), sequence (O00329 whole entry, looked up): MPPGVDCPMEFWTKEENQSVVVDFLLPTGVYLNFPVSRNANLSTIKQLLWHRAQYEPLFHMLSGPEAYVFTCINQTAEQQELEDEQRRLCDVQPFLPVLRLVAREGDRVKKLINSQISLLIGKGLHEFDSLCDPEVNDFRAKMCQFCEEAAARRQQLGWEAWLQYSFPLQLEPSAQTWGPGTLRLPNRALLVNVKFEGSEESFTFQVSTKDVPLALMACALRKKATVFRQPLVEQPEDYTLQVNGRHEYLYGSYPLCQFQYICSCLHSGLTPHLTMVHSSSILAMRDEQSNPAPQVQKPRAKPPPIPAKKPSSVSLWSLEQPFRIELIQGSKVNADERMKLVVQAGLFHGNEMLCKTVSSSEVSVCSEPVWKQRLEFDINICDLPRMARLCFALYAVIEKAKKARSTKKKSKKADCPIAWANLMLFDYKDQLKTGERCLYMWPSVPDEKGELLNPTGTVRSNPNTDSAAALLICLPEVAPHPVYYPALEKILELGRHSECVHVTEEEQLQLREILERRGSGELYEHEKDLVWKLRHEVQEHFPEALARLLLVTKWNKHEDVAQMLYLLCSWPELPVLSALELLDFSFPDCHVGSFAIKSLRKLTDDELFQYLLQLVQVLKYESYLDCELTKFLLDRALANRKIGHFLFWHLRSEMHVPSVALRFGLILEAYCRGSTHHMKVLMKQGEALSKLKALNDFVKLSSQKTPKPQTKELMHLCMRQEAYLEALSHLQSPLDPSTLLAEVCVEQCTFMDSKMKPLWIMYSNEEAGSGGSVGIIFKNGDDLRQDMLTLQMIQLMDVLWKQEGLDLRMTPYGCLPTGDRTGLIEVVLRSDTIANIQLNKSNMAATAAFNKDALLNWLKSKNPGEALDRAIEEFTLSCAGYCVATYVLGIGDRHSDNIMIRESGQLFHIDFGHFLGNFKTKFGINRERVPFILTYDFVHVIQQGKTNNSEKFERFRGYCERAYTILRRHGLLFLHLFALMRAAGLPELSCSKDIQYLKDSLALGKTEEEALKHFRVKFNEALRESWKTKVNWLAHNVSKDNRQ
PIK3CA (human), sequence (P42336 whole entry, looked up): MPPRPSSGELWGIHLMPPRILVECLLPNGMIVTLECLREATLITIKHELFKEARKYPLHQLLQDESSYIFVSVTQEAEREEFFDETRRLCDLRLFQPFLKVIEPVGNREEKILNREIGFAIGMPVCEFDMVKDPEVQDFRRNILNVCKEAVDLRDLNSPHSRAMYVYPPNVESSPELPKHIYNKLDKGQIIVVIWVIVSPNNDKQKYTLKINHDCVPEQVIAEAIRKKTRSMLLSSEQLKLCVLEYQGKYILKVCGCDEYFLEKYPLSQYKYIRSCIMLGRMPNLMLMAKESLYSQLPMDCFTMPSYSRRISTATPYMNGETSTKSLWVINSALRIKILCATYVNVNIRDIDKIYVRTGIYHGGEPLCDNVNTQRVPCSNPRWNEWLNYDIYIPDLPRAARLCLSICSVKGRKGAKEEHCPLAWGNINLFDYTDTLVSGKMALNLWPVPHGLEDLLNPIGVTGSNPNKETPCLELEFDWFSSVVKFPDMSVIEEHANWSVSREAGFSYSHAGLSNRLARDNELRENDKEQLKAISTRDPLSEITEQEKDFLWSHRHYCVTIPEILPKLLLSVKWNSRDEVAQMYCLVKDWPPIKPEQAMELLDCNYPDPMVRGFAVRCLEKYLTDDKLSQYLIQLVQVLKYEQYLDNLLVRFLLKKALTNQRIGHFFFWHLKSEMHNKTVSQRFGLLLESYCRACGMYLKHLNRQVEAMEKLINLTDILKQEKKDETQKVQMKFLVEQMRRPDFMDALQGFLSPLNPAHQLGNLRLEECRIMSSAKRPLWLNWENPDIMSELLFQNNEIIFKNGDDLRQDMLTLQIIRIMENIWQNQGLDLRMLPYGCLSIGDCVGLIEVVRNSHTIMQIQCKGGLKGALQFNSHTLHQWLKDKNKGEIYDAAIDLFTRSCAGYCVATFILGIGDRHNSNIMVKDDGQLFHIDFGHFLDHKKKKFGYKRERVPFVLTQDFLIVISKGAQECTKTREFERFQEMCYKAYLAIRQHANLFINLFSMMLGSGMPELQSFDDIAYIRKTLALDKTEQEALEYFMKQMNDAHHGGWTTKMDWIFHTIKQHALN
PIK3CB (Human), sequence (P42338 whole entry, looked up): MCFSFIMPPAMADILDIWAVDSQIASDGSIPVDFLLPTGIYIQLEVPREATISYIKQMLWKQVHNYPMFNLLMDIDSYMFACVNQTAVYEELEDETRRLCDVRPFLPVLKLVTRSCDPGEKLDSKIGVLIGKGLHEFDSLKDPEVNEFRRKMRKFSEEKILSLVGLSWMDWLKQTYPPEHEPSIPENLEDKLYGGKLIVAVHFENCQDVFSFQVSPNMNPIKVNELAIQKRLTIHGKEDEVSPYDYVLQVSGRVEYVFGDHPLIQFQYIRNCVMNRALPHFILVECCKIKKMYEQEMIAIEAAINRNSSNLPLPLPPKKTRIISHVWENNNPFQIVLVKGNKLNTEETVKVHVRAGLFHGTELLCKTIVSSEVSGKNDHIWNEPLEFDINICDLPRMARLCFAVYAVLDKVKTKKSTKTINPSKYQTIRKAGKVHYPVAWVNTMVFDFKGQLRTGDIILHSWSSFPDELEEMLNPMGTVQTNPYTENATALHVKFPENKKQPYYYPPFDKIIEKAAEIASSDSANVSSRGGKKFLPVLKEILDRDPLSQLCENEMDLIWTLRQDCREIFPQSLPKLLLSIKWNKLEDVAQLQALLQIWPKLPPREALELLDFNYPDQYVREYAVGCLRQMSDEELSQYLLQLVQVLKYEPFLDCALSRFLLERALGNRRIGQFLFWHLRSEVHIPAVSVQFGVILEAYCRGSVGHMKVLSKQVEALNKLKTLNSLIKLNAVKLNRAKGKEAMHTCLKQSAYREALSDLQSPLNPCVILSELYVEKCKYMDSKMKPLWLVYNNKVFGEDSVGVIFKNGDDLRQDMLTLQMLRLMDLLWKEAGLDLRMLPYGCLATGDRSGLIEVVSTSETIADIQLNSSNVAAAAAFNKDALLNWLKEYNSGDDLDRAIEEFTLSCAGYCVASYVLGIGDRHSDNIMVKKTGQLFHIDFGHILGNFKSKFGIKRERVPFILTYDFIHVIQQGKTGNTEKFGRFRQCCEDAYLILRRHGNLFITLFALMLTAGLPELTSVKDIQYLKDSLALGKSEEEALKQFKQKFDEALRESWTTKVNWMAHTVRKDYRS

| Structure (SMILES) | IC50 (PIK3CA (human)) | other results |
| --- | --- | --- |
| O=C(NO)c1cnc(N(CCO)Cc2cc3nc(-c4cccc5[nH]ncc45)nc(N4CCOCC4)c3s2)nc1 | < 100 nM | IC50 (PIK3CB (Human)): < 100 nM |
| O=C(NO)c1cnc(N2CCN(Cc3cc4nc(-c5cccc6[nH]ncc56)nc(N5CCOCC5)c4s3)CC2)nc1 | < 100 nM | IC50 (PIK3CD (Human)): 100 to 1000 nM; IC50 (PIK3CB (Human)): < 100 nM; IC50 (PIK3CG (human)): < 100 nM |
| O=C(NO)c1cnc(N(CCCO)Cc2cc3nc(-c4cccc5[nH]ncc45)nc(N4CCOCC4)c3s2)nc1 | < 100 nM | – |
| CCCCN(Cc1cc2nc(-c3cccc4[nH]ncc34)nc(N3CCOCC3)c2s1)c1ncc(C(=O)NO)cn1 | 100 to 1000 nM | – |
| CN(Cc1cc2nc(-c3cccc4[nH]ncc34)nc(N3CCOCC3)c2s1)c1ccc(/C=C/C(=O)NO)cc1 | < 100 nM | – |
| NC(=O)CN(Cc1cc2nc(-c3cccc4[nH]ncc34)nc(N3CCOCC3)c2s1)c1ncc(C(=O)NO)cn1 | < 100 nM | – |
| COC(=O)CN(Cc1cc2nc(-c3cccc4[nH]ncc34)nc(N3CCOCC3)c2s1)c1ncc(C(=O)NO)cn1 | < 100 nM | – |
| CN(C)c1ncc(-c2nc(N3CCOCC3)c3sc(CN(C)c4ncc(C(=O)NO)cn4)cc3n2)cn1 | < 100 nM | – |
| CN(Cc1cc2nc(-c3ccc4[nH]ccc4c3)nc(N3CCOCC3)c2s1)c1ncc(C(=O)NO)cn1 | 100 to 1000 nM | – |
| O=C(CCCCCCN1CCN(Cc2cc3nc(-c4cccc5[nH]ncc45)nc(N4CCOCC4)c3s2)CC1)NO | 100 to 1000 nM | – |
| CN(CCCC(=O)NO)Cc1cc2nc(-c3cccc4[nH]ncc34)nc(N3CCOCC3)c2s1 | 100 to 1000 nM | – |
| O=C(C=Cc1cc2nc(-c3cccc4[nH]ncc34)nc(N3CCOCC3)c2s1)NO | 100 to 1000 nM | – |
| CN(Cc1cc2nc(-c3cccnc3)nc(N3CCOCC3)c2s1)c1ncc(C(=O)NO)cn1 | < 100 nM | – |
| CN(Cc1cc2nc(-c3ccc(C(N)=O)cc3)nc(N3CCOCC3)c2s1)c1ncc(C(=O)NO)cn1 | 100 to 1000 nM | – |
| CC1COCC(C)N1c1nc(-c2cccc3[nH]ncc23)nc2cc(CN(C)c3ncc(C(=O)NO)cn3)sc12 (stereo unspecified) | 100 to 1000 nM | – |
| O=C(CCCCCCNc1cc2nc(-c3cccc4[nH]ncc34)nc(N3CCOCC3)c2s1)NO | 100 to 1000 nM | – |
| CN(Cc1cc2nc(-c3cncnc3)nc(N3CCOCC3)c2s1)c1ncc(C(=O)NO)cn1 | < 100 nM | – |
| CN(Cc1cc2nc(-c3cccc4[nH]ccc34)nc(N3CCOCC3)c2s1)c1ncc(C(=O)NO)cn1 | 100 to 1000 nM | – |
| CN(Cc1cc2nc(-c3cccc4[nH]ncc34)nc(N3CCOCC3)c2s1)CC1CCN(c2ncc(C(=O)NO)cn2)CC1 | < 100 nM | – |
| CN(CCCCCC(=O)NO)Cc1cc2nc(-c3cccc4[nH]ncc34)nc(N3CCOCC3)c2s1 | 100 to 1000 nM | – |
| CCCN(Cc1cc2nc(-c3cccc4[nH]ncc34)nc(N3CCOCC3)c2s1)c1ncc(C(=O)NO)cn1 | < 100 nM | – |

| Structure (SMILES) | IC50 (PIK3CA (human)) | other results |
| --- | --- | --- |
| CN(Cc1cc2nc(-c3ccc(N)c(N)c3)nc(N3CCOCC3)c2s1)c1ncc(C(=O)NO)cn1 | 100 to 1000 nM | – |
| CN(Cc1cc2nc(-c3ccc4[nH]cnc4c3)nc(N3CCOCC3)c2s1)c1ncc(C(=O)NO)cn1 | < 100 nM | – |
| CCN(Cc1cc2nc(-c3cccc4[nH]ncc34)nc(N3CCOCC3)c2s1)c1ncc(C(=O)NO)cn1 | < 100 nM | – |
| Nc1ccc(-c2nc(N3CCOCC3)c3sc(CN4CCN(c5ncc(C(=O)NO)cn5)CC4)cc3n2)cc1 | 100 to 1000 nM | – |
| Cc1c(CN(C)c2ncc(C(=O)NO)cn2)sc2c(N3CCOCC3)nc(-c3cccc4[nH]ncc34)nc12 | 100 to 1000 nM | – |
| CN(Cc1cc2nc(-c3cnc(CN)nc3)nc(N3CCOCC3)c2s1)c1ncc(C(=O)NO)cn1 | < 100 nM | – |
| CNc1ncc(-c2nc(N3CCOCC3)c3sc(CN(C)c4ncc(C(=O)NO)cn4)cc3n2)cn1 | < 100 nM | – |
| COCc1cccc(-c2nc(N3CCOCC3)c3sc(CN(C)c4ncc(C(=O)NO)cn4)cc3n2)c1 | 100 to 1000 nM | – |
| NCCN(Cc1cc2nc(-c3cccc4[nH]ncc34)nc(N3CCOCC3)c2s1)c1ncc(C(=O)NO)cn1 | < 100 nM | – |
| CN(Cc1cc2cc(-c3cccc4[nH]ncc34)nc(N3CCOCC3)c2s1)c1ncc(C(=O)NO)cn1 | 100 to 1000 nM | – |
| CN(Cc1cc2nc(-c3cccc4[nH]ncc34)nc(N3CCOCC3)c2s1)c1ncc(C(=O)NO)cn1 | < 100 nM | IC50 (PIK3CD (Human)): < 100 nM; IC50 (PIK3CB (Human)): < 100 nM; IC50 (PIK3CG (human)): < 100 nM |
| Cc1ncc(-c2nc(N3CCOCC3)c3sc(CN(C)c4ncc(C(=O)NO)cn4)cc3n2)cn1 | < 100 nM | – |
| CC(c1cc2nc(-c3cccc4[nH]ncc34)nc(N3CCOCC3)c2s1)N(C)c1ncc(C(=O)NO)cn1 (stereo unspecified) | < 100 nM | – |
| Cc1nc(N)ncc1-c1nc(N2CCOCC2)c2sc(CN(C)c3ncc(C(=O)NO)cn3)cc2n1 | < 100 nM | – |
| C#CCCN(Cc1cc2nc(-c3cccc4[nH]ncc34)nc(N3CCOCC3)c2s1)c1ncc(C(=O)NO)cn1 | < 100 nM | – |
| CC(=O)Nc1ccc(-c2nc(N3CCOCC3)c3sc(CN(C)c4ncc(C(=O)NO)cn4)cc3n2)cc1 | < 100 nM | – |
| O=C(NO)c1cnc(NCc2cc3nc(-c4cccc5[nH]ncc45)nc(N4CCOCC4)c3s2)nc1 | < 100 nM | IC50 (PIK3CD (Human)): < 100 nM; IC50 (PIK3CB (Human)): < 100 nM; IC50 (PIK3CG (human)): < 100 nM |
| CN(Cc1cc2nc(-c3cn[nH]c3)nc(N3CCOCC3)c2s1)c1ncc(C(=O)NO)cn1 | 100 to 1000 nM | – |
| CN(Cc1cc2nc(-c3ccc(C(F)(F)F)cc3)nc(N3CCOCC3)c2s1)c1ncc(C(=O)NO)cn1 | 100 to 1000 nM | – |
| O=C(/C=C/c1ccc(NCc2cc3nc(-c4cccc5[nH]ncc45)nc(N4CCOCC4)c3s2)cc1)NO | < 100 nM | – |

Source: the Kinase Knowledgebase extract (Sharma et al. 2016)
